Data as given in patent US20220175722A1, “DEGRADERS OF FIBROBLAST GROWTH FACTOR RECEPTOR 2 (FGFR2)” (DANA-FARBER CANCER INSTITUTE, INC., priority 2019, published 2022).
Read-outs that look alike come from different tables or passages of the source.

What was measured:
FGFR2 = assay: Rescue of degrader-induced FGFR2 degradation by pretreatment, immunoblot in Kato III cells; assay type: cell-based; details: for rescue of FGFR2 degradation induced by bispecific compound 6: pretreated 2 h (10 μM BGJ398, 10 μM control-1, 0.5 M Bortezomib, 1 μM MLN4924), then 0.1 M bispecific compound 6 for 4 h; for rescue of FGFR2 degradation induced by bispecific compound 20: pretreated 2 h (10 μM FIIN2, 10 M control-1, 0.5 M Bortezomib, 1 μM MLN4924), then 1 M bispecific compound 20 for 4 h
Experimental: Kato III cells were pretreated with 10 μM BGJ398 (the parental compound and known FGFR1/2/3 inhibitor; available from, e.g., MedChemExpress®, Cat. No. HY-13311, Monmouth Junction, N.J.), 10 μM control-1 (VHL ligand), 0.5 M Bortezomib (a proteasome inhibitor; available from, e.g., Millipore Sigma®, Cat. No. 179324-69-7, Burlington, Mass.), and 1 μM MLN4924 (a neddylation inhibitor; available from, e.g., MedChemExpress®, Cat. No. HY-70062, Monmouth Junction, N.J.), for 2 h, and then treated with 0.1 M bispecific compound 6 for 4 h. Cells were lysed and immunoblotted as described above with antibodies to FGFR2 and β-Actin.
Kato III cells were pretreated with 10 μM FIIN2 (the parental compound and known FGFR1/2/3/4 inhibitor; available from, e.g., Selleckchem, Cat. No. S7714, Houston, Tex.), 10 M control-1 (VHL ligand), 0.5 M Bortezomib (a proteasome inhibitor; available from, e.g., Millipore Sigma, Cat. No. 179324-69-7, Burlington, Mass.), and 1 μM MLN4924 (a neddylation inhibitor; available from, e.g., MedChemExpress, Cat. No. HY-70062, Monmouth Junction, N.J.), for 2 h, and then treated with 1 M bispecific compound 20 for 4 h. Cells were lysed and immunoblotted as described above with antibodies to FGFR2 and β-Actin.

Kato III cells = assay: cells; details: 72 h
Experimental: (§1) Kato III cells were treated with bispecific compound 6 or BGJ398 at the indicated concentrations for 72 h. Cell viability was determined using Cell-Titer Glo (Promega™) according to the manufacturer's instructions. IC50 values (defined as the concentration of compound needed to reduce cell viability to 50% of the vehicle DMSO control) were estimated by using GraphPad Prism 7.0 (GraphPad Prism®).
Cell viability was determined using Cell-Titer Glo (Promega™) according to the manufacturer's instructions. IC50 values were estimated by using GraphPad Prism 7.0 (GraphPad Prism®).
as §1, with “6, bispecific compound 7” for “6”, “(Promega™),” for “(Promega™)”

[1] = system: FGFR alteration (fusions, amplifications, or point mutations); details: cited from earlier work
CDK9 = target: T1, CDK9 (Homo sapiens, UniProt P50750); assay: CDK9 degradation by immunoblot (positive control); assay type: cell-based; details: 16 hours
T1 construct: endogenous in cells; host or cells: Kato III; CCLP1; JHH7
T1 sequence (P50750 whole entry): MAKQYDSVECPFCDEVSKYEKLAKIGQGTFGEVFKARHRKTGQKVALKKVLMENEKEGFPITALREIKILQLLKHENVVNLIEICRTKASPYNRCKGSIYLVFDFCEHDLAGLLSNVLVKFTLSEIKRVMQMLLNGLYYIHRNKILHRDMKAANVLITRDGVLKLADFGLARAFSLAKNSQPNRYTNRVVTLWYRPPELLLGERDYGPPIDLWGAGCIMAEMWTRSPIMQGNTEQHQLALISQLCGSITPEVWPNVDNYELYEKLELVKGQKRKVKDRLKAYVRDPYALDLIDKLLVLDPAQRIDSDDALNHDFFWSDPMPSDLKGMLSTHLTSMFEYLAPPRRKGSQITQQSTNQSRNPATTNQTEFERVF
T1 sequence (O60563 whole entry partner): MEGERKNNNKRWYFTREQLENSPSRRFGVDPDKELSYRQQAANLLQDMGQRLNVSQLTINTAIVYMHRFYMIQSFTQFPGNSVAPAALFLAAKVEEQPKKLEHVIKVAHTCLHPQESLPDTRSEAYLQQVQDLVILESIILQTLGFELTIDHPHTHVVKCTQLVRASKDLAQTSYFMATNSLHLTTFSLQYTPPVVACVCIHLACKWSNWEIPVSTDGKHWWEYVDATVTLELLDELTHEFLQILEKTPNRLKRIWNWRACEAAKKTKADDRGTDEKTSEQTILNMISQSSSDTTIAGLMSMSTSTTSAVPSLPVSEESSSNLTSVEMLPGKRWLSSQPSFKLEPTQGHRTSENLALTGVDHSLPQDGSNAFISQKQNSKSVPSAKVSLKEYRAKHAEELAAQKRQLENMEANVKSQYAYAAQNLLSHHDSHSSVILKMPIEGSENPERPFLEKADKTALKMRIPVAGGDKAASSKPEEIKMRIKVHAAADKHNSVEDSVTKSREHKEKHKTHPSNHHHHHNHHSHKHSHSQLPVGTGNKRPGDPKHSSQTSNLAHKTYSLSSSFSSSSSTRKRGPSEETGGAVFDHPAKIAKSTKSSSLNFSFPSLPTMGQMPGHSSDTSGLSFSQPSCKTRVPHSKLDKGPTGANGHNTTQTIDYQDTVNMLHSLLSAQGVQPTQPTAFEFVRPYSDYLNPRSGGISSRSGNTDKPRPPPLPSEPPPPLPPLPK
Experimental: Kato III cells were treated with 0, 0.1, 1, or 10 M of bispecific compound 6 or 0.5 M THAL-SNS-032 (a known CDK9 degrader and positive control for CDK9 degradation; available from, e.g., MedChemExpress®, Cat. No. HY-10008, Monmouth Junction, N.J.) for 16 hours. Cells were then lysed in RIPA buffer (Millipore Sigma®) containing protease/phosphatase inhibitor cocktail (Roche®). The protein concentrations were measured by bicinchoninic acid assay (BCA) analysis (Pierce™). Equal amounts of protein were resolved by 4-12% Tris-Base gels (Invitrogen™), and then transferred to the Immuno-Blot PVDF membrane (Bio-Rad®), and immunoblotted with primary antibodies against FGFR2 (cell signaling), CDK9 (cell signaling) and […] (cell signaling), and then immunoblotted with IRDye®800-labeled goat anti-rabbit IgG and IRDye®800-labeled goat anti-mouse IgG (LI-COR®) secondary antibodies. The membranes were detected on Odyssey CLx system.
CCLP1 cells were treated with 0, 0.1, 1, or 10 M of bispecific compound 6 or 0.5 μM THAL-SNS-032 for 16 hours, and then lysed and immunoblotted with antibodies to FGFR1 (cell signaling), CDK9, and β-Actin.
JHH7 cells were treated with 0, 0.1, 1, or 10 M of bispecific compound 6 or 0.5 M THAL-SNS-032 for 16 hours, and then lysed and immunoblotted with antibodies to FGFR3 (cell signaling), FGFR4 (cell signaling), CDK9, and β-Actin.

[2] = patients with advanced refractory ICC with an FGFR alteration

For CC(=O)N[C@H](C(=O)N1C[C@H](O)C[C@H]1C(=O)N[C@@H](C)c1ccc(-c2scnc2C)cc1)C(C)(C)C [control-1], which “rescue of FGFR2 degradation induced by bispecific compound 6” value (from here on “rescue … by bispecific compound 6”) (FGFR2) is on record?
Its value is “rescued the FGFR2 degradation”.

And the “rescue of FGFR2 degradation induced by bispecific compound 20” value (“rescue … by bispecific compound 20” below) (FGFR2)?
Its value is “rescued the FGFR2 degradation”.

For CC(C)C[C@H](NC(=O)[C@H](Cc1ccccc1)NC(=O)c1cnccn1)B(O)O [Bortezomib], which “rescue … by bispecific compound 6” value (FGFR2) is on record?
The value was “rescued the FGFR2 degradation”.

What about the “rescue … by bispecific compound 20” value (FGFR2) of the same molecule?
Its value is “rescued the FGFR2 degradation”.

For C=CC(=O)Nc1ccc(CN2C(=O)N(c3cc(OC)cc(OC)c3)Cc3cnc(Nc4ccc(N5CCN(C)CC5)cc4)nc32)cc1 [FIIN2], which “rescue … by bispecific compound 20” value (FGFR2) is on record?
Its value is “rescued the FGFR2 degradation”.

Which results are given for NS(=O)(=O)OC[C@@H]1C[C@@H](n2ccc3c(N[C@H]4CCc5ccccc54)ncnc32)C[C@@H]1O [MLN4924]?
rescue of FGFR2 degradation induced by bispecific compound 6 (FGFR2): rescued the FGFR2 degradation; rescue of FGFR2 degradation induced by bispecific compound 20 (FGFR2): rescued the FGFR2 degradation

For CCN1CCN(c2ccc(Nc3cc(N(C)C(=O)Nc4c(Cl)c(OC)cc(OC)c4Cl)ncn3)cc2)CC1 [BGJ398], which “rescue … by bispecific compound 6” value (FGFR2) is on record?
Its value is “rescued the FGFR2 degradation”.

And the IC50 (Kato III cells; Homo sapiens, KATO III, read-out: IC50 (concentration needed to reduce cell viability to 50% of the vehicle DMSO control))?
Its IC50 is about 1 nM.

What about the anti-proliferation effect (Kato III cells; Kato III cells) of the same molecule?
The anti-proliferation effect was “good anti-proliferation effect”.

What about the “disease control rate (DCR; partial responses+stable disease)” value ([1]; FGFR2 fusions only) of the same molecule?
Its value is 83.3%.

What about the “overall response rate (ORR)” value ([1]; FGFR2 fusions only) of the same molecule?
Its value is 18.8%.

What about the “Median progression free survival” value [1, 2] of the same molecule?
Its value is 5,8 months.

And the “disease control rate (DCR; partial responses+stable disease)” value [1, 2]?
The value was 75.4%.

And the “overall response rate (ORR)” value [1, 2]?
The value was 14.8%.

With CC(C)(C)c1cnc(CSc2cnc(NC(=O)C3CCN(CC(=O)NCCOCCOCCOCCNc4cccc5c4C(=O)N(C4CCC(=O)NC4=O)C5=O)CC3)s2)o1 (stereo not drawn) [THAL-SNS-032] as the molecule, how does the CDK9 degradation (CDK9; CCLP1 cells, 0.5 μM) read?
Its CDK9 degradation is “induced CDK9 degradation”.

And the CDK9 degradation (CDK9; JHH7 cells, 0.5 µM)?
The CDK9 degradation was “induces CDK9 degradation”.

And the CDK9 degradation (CDK9; Kato III cells, 0.5 µM)?
The CDK9 degradation was “induced CDK9 degradation”.
